Active and inactive are the calls of the source.
Columns and labels:
[1] = molecular target: DNA dC->dU-editing enzyme APOBEC-3G (Homo sapiens, UniProt Q9HC16); experiment: Dose Response confirmation of small molecule APOBEC3G DNA Deaminase Inhibitors via a fluorescence-based single-stranded DNA deaminase assay. [Related pubchem assays (depositor defined):AID493012, AID493028]; assay type: functional
cells = assay type: functional, cell-based
[2] = molecular target: T1, Eukaryotic translation initiation factor 2-alpha kinase 3 (Homo sapiens, UniProt Q9NZJ5); experiment: Counterscreen assay for PERK inhibitors: Dose response cell-based high throughput screening assay to measure inhibition of PERK at 6 hours. [Related pubchem assays: 1522, 1416 ]; assay type: functional
T1 sequence (Q9NZJ5 whole entry): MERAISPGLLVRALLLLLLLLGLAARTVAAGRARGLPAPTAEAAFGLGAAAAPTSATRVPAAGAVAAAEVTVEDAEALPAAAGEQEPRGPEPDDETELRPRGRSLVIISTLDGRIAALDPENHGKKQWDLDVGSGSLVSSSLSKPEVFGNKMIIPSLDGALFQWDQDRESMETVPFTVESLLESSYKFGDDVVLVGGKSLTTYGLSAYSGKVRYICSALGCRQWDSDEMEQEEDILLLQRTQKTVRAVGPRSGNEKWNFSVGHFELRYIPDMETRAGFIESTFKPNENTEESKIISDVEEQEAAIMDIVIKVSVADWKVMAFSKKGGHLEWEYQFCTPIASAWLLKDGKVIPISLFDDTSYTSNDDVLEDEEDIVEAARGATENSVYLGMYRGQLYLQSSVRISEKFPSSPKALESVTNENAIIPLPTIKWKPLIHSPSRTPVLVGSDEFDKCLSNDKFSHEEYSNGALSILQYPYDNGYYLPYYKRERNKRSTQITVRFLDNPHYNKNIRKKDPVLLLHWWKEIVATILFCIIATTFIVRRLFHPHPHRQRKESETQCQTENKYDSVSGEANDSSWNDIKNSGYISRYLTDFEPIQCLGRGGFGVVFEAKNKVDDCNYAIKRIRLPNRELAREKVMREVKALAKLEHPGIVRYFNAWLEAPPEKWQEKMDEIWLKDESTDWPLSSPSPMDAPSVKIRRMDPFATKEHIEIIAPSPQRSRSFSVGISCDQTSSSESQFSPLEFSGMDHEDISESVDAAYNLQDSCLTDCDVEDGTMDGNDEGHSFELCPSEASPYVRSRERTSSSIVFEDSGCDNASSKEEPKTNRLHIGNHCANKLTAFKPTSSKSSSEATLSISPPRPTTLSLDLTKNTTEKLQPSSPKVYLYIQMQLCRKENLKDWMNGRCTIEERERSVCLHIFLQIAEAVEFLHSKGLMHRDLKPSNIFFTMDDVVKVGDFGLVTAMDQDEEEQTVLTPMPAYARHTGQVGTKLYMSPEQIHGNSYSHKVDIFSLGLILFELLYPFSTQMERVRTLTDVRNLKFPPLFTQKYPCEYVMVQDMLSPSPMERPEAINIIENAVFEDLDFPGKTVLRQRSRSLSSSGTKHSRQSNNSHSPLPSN

[3] = molecular target: T1, Eukaryotic translation initiation factor 2-alpha kinase 3; experiment: Dose response cell-based high-throughput screening assay to measure PERK inhibition. [Related pubchem assays: 1416 ]; assay type: functional
[4] = molecular target: T2, Endoribonuclease toxin MazF (Escherichia coli K-12, UniProt P0AE70); experiment: MazF toxin RNase activators, dose response, biochemical, fluorescence, single-stranded RNA substrate, uHTS hits (AID 588481); assay type: functional
T2 sequence (P0AE70 whole entry): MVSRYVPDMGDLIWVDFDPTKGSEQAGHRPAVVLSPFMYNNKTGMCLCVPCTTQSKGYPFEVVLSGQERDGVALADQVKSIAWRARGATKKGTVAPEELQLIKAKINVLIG

H4 = experiment: Luminescence Cell-Based Dose Response HTS to Identify Activators of 5'UTR Stem-Loop Driven Prion Protein mRNA Translation in H4 Neuroglioblastoma Cells. [Related pubchem assays: 1829 (Project Summary), 1814 (Primary HTS)]; assay type: functional; details: Homo sapiens
HeLa = experiment: HeLa cell cytotoxicity, dose response, cytotoxicity control, 24 h, cherry-picked samples (AID 504726); assay type: functional, cell-based; details: Homo sapiens;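 note: potency for cytotoxicity as loss of luminescence signal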
[5] = Luminescence Cell-Based Dose Confirmation HTS to Identify Activators of 5'UTR Stem-Loop Driven Alpha-Synuclein mRNA Translation in H4 Neuroglioblastoma Cells. [Related pubchem assays: 1829 (Project Summary), 1814 (Primary HTS)]; assay type: functional
[6] = molecular target: T3, Oxysterols receptor LXR-beta (Homo sapiens, UniProt P55055); assay type: functional, cell-based;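 note: agonist activity at LXR measured by a cell-based luminescence readout across a dose range, run as a counterscreen for daf-12 agonists; HEK293 cells with Gal4-LXR fusion and GAL4-driven luciferase reporter; potency for activation of Gal4-LXR reporter so compounds are agonists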
T3 sequence (P55055 whole entry): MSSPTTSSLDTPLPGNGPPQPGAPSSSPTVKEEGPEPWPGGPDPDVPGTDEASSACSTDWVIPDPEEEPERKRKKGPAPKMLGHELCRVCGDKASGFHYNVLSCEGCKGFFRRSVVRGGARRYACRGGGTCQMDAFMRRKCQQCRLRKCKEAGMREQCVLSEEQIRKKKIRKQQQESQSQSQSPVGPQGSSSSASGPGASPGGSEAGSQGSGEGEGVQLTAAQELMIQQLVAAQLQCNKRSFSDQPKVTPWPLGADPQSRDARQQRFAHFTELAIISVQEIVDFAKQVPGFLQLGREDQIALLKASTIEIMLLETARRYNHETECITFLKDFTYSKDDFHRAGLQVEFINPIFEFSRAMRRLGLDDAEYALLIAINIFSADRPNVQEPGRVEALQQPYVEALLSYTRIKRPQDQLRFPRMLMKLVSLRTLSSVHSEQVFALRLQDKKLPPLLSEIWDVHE

[7] = molecular target: T2, Endoribonuclease toxin MazF; experiment: fluorescent RNA oligo signal without MazF, dose response, counter-screen for MazEF activator project, biochemical, fluorescence, single-stranded RNase substrate (AID 588502); assay type: functional
[8] = Luminescence Cell-Based Dose Response HTS to Identify Activators of Luciferase Translation or Activity in H4 […] Cells. [Related pubchem assays: 1829 (Project Summary), 1814 (Primary HTS)]; assay type: functional
[9] = molecular target: Heat shock 70 kDa protein 1A (Homo sapiens, UniProt P0DMV8); experiment: Hsp70 inhibitors, SAR follow-up, biochemical, fluorescence polarization (AID 1072)
Heat shock 70 kDa protein 1A, sequence (P0DMV8 whole entry): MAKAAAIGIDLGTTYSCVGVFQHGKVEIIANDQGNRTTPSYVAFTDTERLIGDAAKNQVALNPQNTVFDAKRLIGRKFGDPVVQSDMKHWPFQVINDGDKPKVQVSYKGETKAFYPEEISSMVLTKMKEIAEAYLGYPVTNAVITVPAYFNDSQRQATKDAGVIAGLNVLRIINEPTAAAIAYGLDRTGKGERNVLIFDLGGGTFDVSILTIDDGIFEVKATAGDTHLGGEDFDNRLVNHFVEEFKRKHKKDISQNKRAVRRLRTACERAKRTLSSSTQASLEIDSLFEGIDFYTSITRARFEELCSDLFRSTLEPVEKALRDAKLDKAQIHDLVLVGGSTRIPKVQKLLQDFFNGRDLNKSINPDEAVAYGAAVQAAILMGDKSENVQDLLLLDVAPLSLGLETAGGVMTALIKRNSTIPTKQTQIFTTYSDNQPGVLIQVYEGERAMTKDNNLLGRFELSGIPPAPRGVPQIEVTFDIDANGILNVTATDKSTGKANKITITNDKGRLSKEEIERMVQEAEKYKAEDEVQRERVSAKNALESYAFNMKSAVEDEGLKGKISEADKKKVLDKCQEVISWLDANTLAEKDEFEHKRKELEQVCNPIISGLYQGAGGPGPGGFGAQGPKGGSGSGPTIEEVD

[10] = molecular target: T4, Tyrosine-protein phosphatase non-receptor type 7 (Homo sapiens, UniProt P35236); assay type: functional
T4 sequence (P35236 whole entry): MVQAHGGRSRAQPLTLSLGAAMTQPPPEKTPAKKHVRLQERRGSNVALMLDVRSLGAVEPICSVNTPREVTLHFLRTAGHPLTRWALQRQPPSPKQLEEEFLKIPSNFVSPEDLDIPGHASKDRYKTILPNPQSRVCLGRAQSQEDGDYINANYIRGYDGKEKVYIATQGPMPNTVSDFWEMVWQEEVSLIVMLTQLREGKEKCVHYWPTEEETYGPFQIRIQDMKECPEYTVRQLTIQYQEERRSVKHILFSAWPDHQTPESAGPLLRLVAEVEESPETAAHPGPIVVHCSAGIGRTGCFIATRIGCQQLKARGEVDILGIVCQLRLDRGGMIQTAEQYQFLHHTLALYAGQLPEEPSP

[11] = molecular target: Glyceraldehyde-3-phosphate dehydrogenase (Homo sapiens, UniProt P04406)
Glyceraldehyde-3-phosphate dehydrogenase, sequence (P04406 whole entry): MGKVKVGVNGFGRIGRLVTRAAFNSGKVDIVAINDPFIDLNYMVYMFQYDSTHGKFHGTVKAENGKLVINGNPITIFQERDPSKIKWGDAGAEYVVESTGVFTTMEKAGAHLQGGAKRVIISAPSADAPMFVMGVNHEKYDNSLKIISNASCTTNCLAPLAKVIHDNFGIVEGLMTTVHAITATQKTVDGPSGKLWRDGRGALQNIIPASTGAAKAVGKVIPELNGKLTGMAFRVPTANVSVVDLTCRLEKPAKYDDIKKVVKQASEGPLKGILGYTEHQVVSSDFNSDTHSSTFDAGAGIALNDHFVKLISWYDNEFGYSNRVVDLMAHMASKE

[12] = molecular target: T5, Dual specificity protein phosphatase 6 (Rattus norvegicus, UniProt Q64346); assay type: functional
T5 sequence (Q64346 whole entry): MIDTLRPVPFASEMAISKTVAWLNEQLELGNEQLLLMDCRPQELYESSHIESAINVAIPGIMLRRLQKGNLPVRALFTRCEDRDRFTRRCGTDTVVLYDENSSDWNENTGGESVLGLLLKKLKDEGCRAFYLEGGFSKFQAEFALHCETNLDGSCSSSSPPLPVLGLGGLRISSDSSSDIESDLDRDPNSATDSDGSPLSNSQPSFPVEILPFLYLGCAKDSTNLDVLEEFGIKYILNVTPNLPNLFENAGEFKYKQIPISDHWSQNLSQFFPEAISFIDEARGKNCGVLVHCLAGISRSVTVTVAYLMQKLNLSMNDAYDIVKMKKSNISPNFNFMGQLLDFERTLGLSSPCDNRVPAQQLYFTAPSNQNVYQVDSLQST

[13] = molecular target: T5, Dual specificity protein phosphatase 6
[14] = molecular target: Heat shock cognate 71 kDa protein (Homo sapiens, UniProt P11142); experiment: In Vitro Hsc70 Dose Response Fluorescence Polarization Assay. [Related pubchem assays: 1072 ]
Heat shock cognate 71 kDa protein, sequence (P11142 whole entry): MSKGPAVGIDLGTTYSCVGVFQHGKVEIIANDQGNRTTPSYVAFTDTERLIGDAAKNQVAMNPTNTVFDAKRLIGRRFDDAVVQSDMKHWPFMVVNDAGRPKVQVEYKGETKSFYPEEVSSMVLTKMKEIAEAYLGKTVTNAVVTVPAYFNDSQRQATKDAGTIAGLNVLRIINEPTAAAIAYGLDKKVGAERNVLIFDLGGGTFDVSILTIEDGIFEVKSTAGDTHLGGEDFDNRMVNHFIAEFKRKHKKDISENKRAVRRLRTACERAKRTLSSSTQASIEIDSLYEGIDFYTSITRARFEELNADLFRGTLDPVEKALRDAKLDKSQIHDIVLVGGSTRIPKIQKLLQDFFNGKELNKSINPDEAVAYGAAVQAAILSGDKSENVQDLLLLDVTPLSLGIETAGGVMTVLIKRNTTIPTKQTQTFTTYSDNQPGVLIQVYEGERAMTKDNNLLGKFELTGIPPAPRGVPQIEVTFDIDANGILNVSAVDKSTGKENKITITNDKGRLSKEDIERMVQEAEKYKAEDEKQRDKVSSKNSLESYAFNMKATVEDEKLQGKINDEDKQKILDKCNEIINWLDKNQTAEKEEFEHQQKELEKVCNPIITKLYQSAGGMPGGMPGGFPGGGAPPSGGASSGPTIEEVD

[15] = molecular target: Voltage-dependent T-type calcium channel subunit alpha-1H (Homo sapiens, UniProt O95180); assay type: functional;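 note: channel activity triggered by adding a high calcium stimulation buffer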
Voltage-dependent T-type calcium channel subunit alpha-1H, sequence (O95180 whole entry): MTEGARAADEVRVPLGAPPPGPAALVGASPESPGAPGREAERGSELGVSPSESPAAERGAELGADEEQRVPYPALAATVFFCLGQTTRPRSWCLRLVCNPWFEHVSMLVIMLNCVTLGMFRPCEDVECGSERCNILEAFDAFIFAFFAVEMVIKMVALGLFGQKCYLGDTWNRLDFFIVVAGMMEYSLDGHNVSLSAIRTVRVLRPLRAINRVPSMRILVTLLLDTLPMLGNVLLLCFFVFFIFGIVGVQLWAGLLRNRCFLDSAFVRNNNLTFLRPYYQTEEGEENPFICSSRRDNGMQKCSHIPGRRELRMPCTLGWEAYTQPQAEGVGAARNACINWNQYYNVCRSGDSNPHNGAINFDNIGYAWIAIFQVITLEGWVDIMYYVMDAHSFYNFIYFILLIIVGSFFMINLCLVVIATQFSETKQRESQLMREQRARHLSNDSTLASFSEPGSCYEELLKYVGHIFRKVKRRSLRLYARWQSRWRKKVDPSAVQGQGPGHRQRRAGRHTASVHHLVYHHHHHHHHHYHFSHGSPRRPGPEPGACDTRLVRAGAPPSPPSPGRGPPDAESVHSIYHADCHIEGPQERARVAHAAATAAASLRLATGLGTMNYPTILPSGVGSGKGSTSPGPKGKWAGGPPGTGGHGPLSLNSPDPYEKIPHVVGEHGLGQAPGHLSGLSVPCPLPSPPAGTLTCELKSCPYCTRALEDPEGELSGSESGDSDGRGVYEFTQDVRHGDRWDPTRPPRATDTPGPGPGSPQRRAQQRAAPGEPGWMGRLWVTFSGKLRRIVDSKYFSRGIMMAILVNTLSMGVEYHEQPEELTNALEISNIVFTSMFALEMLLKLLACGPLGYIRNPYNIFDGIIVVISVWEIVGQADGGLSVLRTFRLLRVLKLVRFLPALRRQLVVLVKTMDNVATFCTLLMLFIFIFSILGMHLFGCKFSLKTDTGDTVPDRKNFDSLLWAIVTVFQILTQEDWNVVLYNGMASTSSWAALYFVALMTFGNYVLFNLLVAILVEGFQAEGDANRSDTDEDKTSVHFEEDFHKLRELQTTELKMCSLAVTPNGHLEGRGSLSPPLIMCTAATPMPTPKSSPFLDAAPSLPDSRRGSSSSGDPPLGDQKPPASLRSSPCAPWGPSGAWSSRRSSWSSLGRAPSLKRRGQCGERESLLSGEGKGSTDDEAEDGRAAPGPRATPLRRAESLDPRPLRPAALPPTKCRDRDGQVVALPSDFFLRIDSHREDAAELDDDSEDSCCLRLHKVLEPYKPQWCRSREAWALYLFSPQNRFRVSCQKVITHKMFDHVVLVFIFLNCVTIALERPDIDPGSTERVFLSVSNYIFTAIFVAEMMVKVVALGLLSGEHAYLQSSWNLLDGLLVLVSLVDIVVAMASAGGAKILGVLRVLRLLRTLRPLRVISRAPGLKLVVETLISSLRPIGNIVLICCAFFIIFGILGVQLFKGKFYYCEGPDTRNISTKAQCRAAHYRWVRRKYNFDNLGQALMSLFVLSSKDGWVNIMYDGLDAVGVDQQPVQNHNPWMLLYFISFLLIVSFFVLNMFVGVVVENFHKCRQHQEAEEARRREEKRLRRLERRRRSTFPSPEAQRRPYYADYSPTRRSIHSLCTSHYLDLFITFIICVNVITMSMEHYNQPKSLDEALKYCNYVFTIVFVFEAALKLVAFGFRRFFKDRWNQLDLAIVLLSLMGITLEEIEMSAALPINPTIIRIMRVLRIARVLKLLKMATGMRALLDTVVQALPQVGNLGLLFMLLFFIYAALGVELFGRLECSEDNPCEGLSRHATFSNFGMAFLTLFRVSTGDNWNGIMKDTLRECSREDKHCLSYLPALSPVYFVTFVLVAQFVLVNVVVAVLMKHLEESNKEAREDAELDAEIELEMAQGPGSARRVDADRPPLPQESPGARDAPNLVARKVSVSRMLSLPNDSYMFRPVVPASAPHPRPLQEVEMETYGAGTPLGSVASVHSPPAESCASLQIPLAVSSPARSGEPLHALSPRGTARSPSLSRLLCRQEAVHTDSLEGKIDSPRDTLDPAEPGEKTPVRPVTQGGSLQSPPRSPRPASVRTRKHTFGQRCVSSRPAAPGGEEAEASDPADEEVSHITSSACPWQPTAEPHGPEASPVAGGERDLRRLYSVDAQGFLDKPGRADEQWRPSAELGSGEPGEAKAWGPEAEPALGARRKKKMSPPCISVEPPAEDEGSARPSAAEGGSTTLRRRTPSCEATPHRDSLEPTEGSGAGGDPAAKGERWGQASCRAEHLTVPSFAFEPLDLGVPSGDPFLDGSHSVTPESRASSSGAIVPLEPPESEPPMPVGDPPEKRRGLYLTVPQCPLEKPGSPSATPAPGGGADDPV

X-box-binding protein 1 = X-box-binding protein 1 (Homo sapiens, UniProt P17861); assay type: functional, Cricetulus griseus;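 note: confirmatory dose-response counter-screen serving a CHOP assay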
X-box-binding protein 1, sequence (P17861 whole entry): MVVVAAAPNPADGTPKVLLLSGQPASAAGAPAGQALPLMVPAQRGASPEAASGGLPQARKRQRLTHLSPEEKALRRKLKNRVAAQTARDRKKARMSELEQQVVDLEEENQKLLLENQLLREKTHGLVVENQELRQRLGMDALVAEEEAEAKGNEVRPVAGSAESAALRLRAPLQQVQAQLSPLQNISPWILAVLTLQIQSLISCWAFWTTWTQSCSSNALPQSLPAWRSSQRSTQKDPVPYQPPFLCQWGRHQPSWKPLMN

Beta-galactosidase = Beta-galactosidase (Escherichia coli, UniProt Q8VNN2); experiment: beta-galactosidase enzyme inhibitors and activators, dose response, artefact control for CCR6 antagonist project, biochemical, E. coli enzyme, set 3 (AID 504712); assay type: functional
[16] = molecular target: Eukaryotic translation initiation factor 4H (Homo sapiens, UniProt Q15056); experiment: human eIF4H binding inhibitors, primary screen, translation initiation inhibitor project, biochemical, uHTS, fluorescence polarization (AID 2012)
Paired box protein Pax-8 = Paired box protein Pax-8 (Homo sapiens, UniProt Q06710); experiment: inhibitors of PAX8-driven TPO luciferase reporter, dose response, RMG-I cells, cherry-pick (AID 687027); assay type: functional, cell-based;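 note: luciferase reporter driven by Pax8 target thyroperoxidase promoter measured by SteadyGlo luminescence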
[17] = molecular target: Polyadenylate-binding protein 1 (Homo sapiens, UniProt P11940); experiment: PABP poly(A) RNA binding inhibitors, primary screen, biochemical, fluorescence polarization, uHTS (AID 2014)

DNA dC->dU-editing enzyme APOBEC-3G, sequence (Q9HC16 whole entry): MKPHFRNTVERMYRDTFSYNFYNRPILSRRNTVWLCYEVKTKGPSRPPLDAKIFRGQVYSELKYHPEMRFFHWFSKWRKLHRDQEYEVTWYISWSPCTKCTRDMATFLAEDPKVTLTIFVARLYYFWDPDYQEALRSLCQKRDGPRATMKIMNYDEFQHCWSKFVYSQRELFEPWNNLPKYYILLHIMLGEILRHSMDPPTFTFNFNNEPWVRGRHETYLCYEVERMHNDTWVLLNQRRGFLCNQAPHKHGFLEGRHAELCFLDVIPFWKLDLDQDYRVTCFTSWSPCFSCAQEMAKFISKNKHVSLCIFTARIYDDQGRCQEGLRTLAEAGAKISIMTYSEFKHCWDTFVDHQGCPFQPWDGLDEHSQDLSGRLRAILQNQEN

**Q.** Which IC50 [1] does the source give for `CSc1nc2c(c(=O)[nH]c(=O)n2C)n1Cc1ccc(Cl)cc1` here?
**A.** 65.2 µM (active)

**Q.** For `Cc1ccc(-c2cc(N)n(-c3ccc(F)cc3)n2)cc1`, which EC50 (cells) is on record?
**A.** > 350 µM (not active)

**Q.** And the EC50 [2]?
**A.** > 55.7 µM (not active)

**Q.** What about the EC50 [3] of the same compound?
**A.** > 55.7 µM (not active)

**Q.** What does the source list for `Oc1[nH]c2ccccc2c1N=Nc1ccccc1F`?
**A.** EC50 [4]: > 99 µM (inactive); EC50 (H4): > 120 µM (not active); AC50 (HeLa): 100 µM (active); EC50 [5]: 4.39 µM (active); EC50 [6]: > 67.6 µM (inactive); EC50 [7]: 31.7 µM (inactive); EC50 [8]: 8.29 µM (active)

**Q.** What does the source list for `CC(C)COC(=O)c1ccc2c(c1)C1C=CCC1C(C(=O)O)N2` (stereo unspecified)?
**A.** IC50 [9]: 32.5 µM (active); IC50 [10]: 44.8 µM (active); IC50 [11]: 87.3 µM (active); IC50 [12]: 55.8 µM (active); IC50 [13]: 48.2 µM (active); IC50 [14]: 164 µM (active)

**Q.** Which results are given for `NS(=O)(=O)c1ccc2c(c1)C1C=CCC1C(C(=O)O)N2` (stereo unspecified)?
**A.** IC50 [9]: 1.97 µM (active); IC50 [10]: 47.3 µM (active); IC50 [11]: 62.2 µM (active); IC50 [12]: > 100 µM (inactive); IC50 [13]: > 100 µM (inactive); IC50 [14]: > 100 µM (not active)

**Q.** Which EC50 [15] does the source give for `C[C@@H](C(=O)Nc1ccc2ccccc2c1)[C@@H]1C[C@@]1(C)[C@@H](NC(=O)c1ccccc1)c1ccccc1` here?
**A.** 2.95 µM (active)

**Q.** Which EC50 [2] does the source give for `CC(C)Cc1cc(C(=O)NCc2cccs2)no1` here?
**A.** > 55.7 µM (not active)

**Q.** What about the EC50 [3] of the same compound?
**A.** > 55.7 µM (not active)

**Q.** With `CC(C)Cn1c2c(c(=O)[nH]c1=O)C(C(F)(F)F)(C(F)(F)F)NC(CCC1CCCCC1)=N2` as the compound, how does the “Absolute IC50 (XBP1)” value (X-box-binding protein 1) read?
**A.** 10 µM

**Q.** For `Cn1cccc1Cc1nnc(SCC(=O)Nc2ccc(F)cc2F)n1-c1ccc(F)cc1`, which EC50 [15] is on record?
**A.** 4.6 µM (active)

**Q.** For `O=c1c2cccc(Cl)c2nc2n1Cc1ccccc1-2`, which EC50 (H4) is on record?
**A.** > 120 µM (not active)

**Q.** And the EC50 [5]?
**A.** 23.4 µM (active)

**Q.** What about the IC50 [1] of the same compound?
**A.** 27.4 µM (active)

**Q.** And the EC50 [8]?
**A.** 64.2 µM (active)

**Q.** For `CC(C)c1ccc(O)c(NC(=S)NC(=O)c2ccc3c(c2)OCO3)c1`, which IC50 (Beta-galactosidase) is on record?
**A.** > 66.6 µM (inactive)

**Q.** With `C[C@H](NC(=O)c1ccco1)C(=O)Nc1cccc([N+](=O)[O-])c1` as the compound, how does the IC50 [16] read?
**A.** > 100 µM (inactive)

**Q.** And the AC50 (Paired box protein Pax-8)?
**A.** 59.2 µM (active)

**Q.** And the IC50 [17]?
**A.** > 100 µM (inactive)
